Test results reported in US9840498B2, “Substituted quinazolin-4-one derivatives” (NOVARTIS AG, priority 2013, dated 2017).
pIC50: −log10 of the molar value.

Columns and labels:
[1] = molecular target: human phosphoinositide-3 kinase (PI3K) delta (Homo sapiens (Human), UniProt O00329); assay: PI3K-mediated Akt 1/2 (S473) phosphorylation in Rat-1 cells overexpressing PI3K delta; assay type: cell-based; settings: cellular assay, p-AKT(Ser473), read-out: Cell PI3K delta IC50
Description: (§1) 2.1 Phosphoinositide-3 kinase (PI3K)-Mediated Akt 1/2 (S473) Phosphorylation in Rat-1 Cells
(§2) Rat-1 cells stably overexpressing a myristoylated form of the catalytic subunit of human phosphoinositide-3 kinase (PI3K) alpha, beta or delta were plated in 384-well plates at a density of 7500 (PI3K alpha), 6200 (PI3K beta), or 4000 (PI3K delta) cells in 30 ul complete growth medium (Dulbecco's modified Eagle's medium (DMEM high glucose) supplemented with 10% (v/v) fetal bovine serum, 1% (v/v) MEM non essential amino acids, 10 mM HEPES, 2 mM L-glutamine, 10 μg/mL puromycin and 1% (v/v) Penicillin/Streptomycin) and were incubated at […]/5% CO2/95% humidity for 24 h. Compounds were diluted in 384-well compound plates (compound master plates), to obtain 8-point serial dilutions for 40 test compounds in 90% DMSO, as well as 4 reference compounds plus 16 high controls and 16 low (inhibited) controls. Predilution plates were prepared by dispensing pipetting 250 nl of compound solutions into 384-well polypropylen plates (daugther plates), using a Hummingwell nanoliter dispenser. Compounds were prediluted by the addition of 49.75 ul complete growth medium. 10 ul of prediluted compound solution were transferred to the cell plate using a 384-well pipettor, resulting in a final DMSO concentration of 0.11%. Cells were incubated for 1 h at […]/5% CO2/95% humidity. The supernatant was removed, the cells were lysed in 20 ul of lysis buffer for AlphaScreen® SureFire® detection.
(§3) For detection of p-AKT(Ser473), the SureFire® p-Akt 1/2 (Ser473) Assay Kit (PerkinElmer, U.S.A.) was used. 5 ul of cell lysate was transferred to 384-well low volume Proxiplates for detection using a 384-well pipettor. Addition of AlphaScreen® SureFire® reagents was done according to the manufacturer's protocol. First, 5 ul of reaction buffer plus activation buffer mix containing AlphaScreen® acceptor beads was added, the plate was sealed, and incubated on a plate shaker for 2 hours at room temperature. Second, 2 ul of dilution buffer containing AlphaScreen® donor beads was added, and the plate was incubated on plate shaker as above for a further 2 hours. The plate was read on an AlphaScreen® compatible plate reader, using standard AlphaScreen® settings. Alternatively, p-AKT(Ser473) was detected with the CisBio HTRF Assay Kit: As positive control, 0.9 mM of 1-(3-(trifluoromethyl)-4-(piperazin-1-yl)phenyl)-8-(6-methoxypyridin-3-yl)-3-methyl-1H-imidazo[4,5-c]quinolin-2(3H)-one maleic acid salt in 90% (v/v) DMSO was added to the compound master plate. For compound testing, the cells were seeded at a density of 4000 (Rat-1_PI3Kdelta), 8000 (Rat-1_PI3Kalpha), or 6500 (Rat-1_PI3Kbeta) cells in 30 ul complete growth medium into 384-well plates, with a plastic surface promoting the adhesion of cells and their growth (assay plates) and were grown at 37° C./5% CO2/90% humidity for 24 h. Some 10 ul of the compound predilutions from the daughter plate were then transferred to the cells. After treatment with compound for 1 h, medium was removed and cells were lysed by the addition of 20 ul lysis buffer supplemented with blocking buffer. Detection of p-AKT(Ser473) was performed with the HTRF pAKT (Ser473) assay kit according to the manufacturer's instructions using 16 ul of cell lysate in a total detection volume of 20 ul.

[2] = molecular target: human phosphoinositide-3 kinase (PI3K) alpha (Homo sapiens (Human), UniProt P42336); assay: PI3K-mediated Akt 1/2 (S473) phosphorylation in Rat-1 cells overexpressing PI3K alpha; assay type: cell-based, rat cells expressing human PI3K alpha; settings: cellular assay, p-AKT(Ser473), read-out: Cell PI3K alpha IC50
Sequence of human phosphoinositide-3 kinase (PI3K) alpha (P42336 whole entry): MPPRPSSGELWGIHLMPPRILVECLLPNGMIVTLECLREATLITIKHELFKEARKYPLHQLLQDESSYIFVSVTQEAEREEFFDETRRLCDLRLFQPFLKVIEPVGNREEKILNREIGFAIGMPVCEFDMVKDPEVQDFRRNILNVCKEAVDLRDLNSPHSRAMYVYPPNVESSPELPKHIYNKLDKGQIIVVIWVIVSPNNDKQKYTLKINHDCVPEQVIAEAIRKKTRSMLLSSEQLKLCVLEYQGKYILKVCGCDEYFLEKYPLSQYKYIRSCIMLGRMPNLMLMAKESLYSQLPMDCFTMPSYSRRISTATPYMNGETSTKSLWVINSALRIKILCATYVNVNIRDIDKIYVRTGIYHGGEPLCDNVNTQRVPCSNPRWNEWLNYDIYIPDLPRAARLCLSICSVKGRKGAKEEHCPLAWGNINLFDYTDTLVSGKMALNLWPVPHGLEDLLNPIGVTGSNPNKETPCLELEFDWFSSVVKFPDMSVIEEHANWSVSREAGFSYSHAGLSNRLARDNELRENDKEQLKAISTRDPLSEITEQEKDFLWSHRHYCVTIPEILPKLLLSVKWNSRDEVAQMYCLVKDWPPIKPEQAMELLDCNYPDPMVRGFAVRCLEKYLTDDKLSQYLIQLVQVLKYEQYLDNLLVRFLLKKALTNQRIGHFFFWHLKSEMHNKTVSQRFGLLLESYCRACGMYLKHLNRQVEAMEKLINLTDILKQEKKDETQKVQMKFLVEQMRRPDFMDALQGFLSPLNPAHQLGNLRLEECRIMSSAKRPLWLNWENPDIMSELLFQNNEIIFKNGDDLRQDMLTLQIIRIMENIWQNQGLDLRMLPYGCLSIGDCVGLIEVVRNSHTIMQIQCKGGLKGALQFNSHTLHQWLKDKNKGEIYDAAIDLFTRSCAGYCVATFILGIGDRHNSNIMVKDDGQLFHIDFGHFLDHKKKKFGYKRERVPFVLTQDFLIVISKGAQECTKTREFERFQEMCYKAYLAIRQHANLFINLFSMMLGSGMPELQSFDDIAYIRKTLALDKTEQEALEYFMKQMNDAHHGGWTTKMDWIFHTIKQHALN
Sequence of human phosphoinositide-3 kinase (PI3K) alpha (Q63787 whole entry partner): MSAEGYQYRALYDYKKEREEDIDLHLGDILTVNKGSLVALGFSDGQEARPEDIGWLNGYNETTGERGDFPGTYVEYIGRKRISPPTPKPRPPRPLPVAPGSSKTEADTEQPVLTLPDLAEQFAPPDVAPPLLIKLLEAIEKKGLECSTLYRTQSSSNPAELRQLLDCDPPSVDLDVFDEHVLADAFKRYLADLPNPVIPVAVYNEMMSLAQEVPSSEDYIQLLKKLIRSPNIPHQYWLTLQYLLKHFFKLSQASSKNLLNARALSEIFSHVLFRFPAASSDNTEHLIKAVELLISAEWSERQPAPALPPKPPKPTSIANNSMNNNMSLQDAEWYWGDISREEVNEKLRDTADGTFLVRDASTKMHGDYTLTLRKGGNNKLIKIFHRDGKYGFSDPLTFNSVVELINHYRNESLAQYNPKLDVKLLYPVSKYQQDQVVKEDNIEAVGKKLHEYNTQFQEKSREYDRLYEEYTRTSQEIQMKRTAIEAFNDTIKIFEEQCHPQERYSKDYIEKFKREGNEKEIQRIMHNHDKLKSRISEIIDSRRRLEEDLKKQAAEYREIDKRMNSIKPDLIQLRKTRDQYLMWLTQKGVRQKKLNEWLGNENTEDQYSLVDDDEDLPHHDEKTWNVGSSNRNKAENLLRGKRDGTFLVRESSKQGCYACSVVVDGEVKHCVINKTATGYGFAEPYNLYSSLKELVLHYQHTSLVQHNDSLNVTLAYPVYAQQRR
Description: as §1, §2, §3

Sequence of human phosphoinositide-3 kinase (PI3K) delta (O00329 whole entry): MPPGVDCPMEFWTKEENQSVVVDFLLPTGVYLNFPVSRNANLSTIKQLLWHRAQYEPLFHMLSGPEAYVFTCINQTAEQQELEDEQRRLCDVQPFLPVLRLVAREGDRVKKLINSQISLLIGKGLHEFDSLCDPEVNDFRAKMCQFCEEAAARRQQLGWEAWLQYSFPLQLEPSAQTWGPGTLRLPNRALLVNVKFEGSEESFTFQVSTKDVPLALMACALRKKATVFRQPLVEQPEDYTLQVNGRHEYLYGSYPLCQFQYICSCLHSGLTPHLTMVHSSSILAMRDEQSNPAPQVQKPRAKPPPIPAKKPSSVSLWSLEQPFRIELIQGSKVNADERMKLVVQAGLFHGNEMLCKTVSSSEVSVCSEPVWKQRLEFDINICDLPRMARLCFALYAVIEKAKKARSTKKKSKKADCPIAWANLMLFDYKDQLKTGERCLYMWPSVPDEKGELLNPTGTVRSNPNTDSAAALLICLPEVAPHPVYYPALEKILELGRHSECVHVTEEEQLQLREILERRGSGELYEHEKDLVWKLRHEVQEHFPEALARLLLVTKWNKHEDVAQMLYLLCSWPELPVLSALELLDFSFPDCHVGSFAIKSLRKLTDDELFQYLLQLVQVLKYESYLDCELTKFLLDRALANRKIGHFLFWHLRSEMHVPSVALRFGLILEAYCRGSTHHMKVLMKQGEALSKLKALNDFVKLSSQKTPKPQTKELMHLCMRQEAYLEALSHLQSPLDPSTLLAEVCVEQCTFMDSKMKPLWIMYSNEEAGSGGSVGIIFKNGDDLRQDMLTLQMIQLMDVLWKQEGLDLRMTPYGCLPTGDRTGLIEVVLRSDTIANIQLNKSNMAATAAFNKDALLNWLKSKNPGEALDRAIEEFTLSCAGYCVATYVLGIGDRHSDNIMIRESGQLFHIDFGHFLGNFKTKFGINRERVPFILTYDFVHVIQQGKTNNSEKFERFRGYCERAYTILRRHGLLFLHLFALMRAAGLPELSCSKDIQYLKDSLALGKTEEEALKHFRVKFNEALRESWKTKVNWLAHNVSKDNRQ
Sequence of human phosphoinositide-3 kinase (PI3K) delta (Q63787 whole entry partner): as the sequence (Q63787 whole entry partner) above

Compound	pIC50 [1]	pIC50 [2]
Cc1nc(N)nc(N2C[C@@H](O)C[C@H]2c2nc3cccc(-c4cccnc4)c3c(=O)n2-c2ccccc2)c1C#N [Example 24, 2-Amino-4-((2S,4S)-4-hydroxy-2-(4-oxo-3-phenyl-5-(pyridin-3-yl)-3,4-dihydroquinazolin-2-yl)pyrrolidin-1-yl)-6-methylpyrimidine-5-carbonitrile]	> 8.52	5.30
COc1ncc(-c2c(F)ccc3nc([C@@H]4C[C@H](O)CN4c4nc(N)nc(C)c4C#N)n(-c4ccccc4)c(=O)c23)s1 [Example 9, 2-Amino-4-((2S,4S)-2-(6-fluoro-5-(2-methoxythiazol-5-yl)-4-oxo-3-phenyl-3,4-dihydroquinazolin-2-yl)-4-hydroxypyrrolidin-1-yl)-6-methylpyrimidine-5-carbonitrile]	> 8.52	6.17
Cc1nc(N)nc(N2CCC[C@H]2c2nc3cccc(-c4cccnc4)c3c(=O)n2-c2ccccc2)c1C#N [Example 20, (S)-2-Amino-4-methyl-6-(2-(4-oxo-3-phenyl-5-(pyridin-3-yl)-3,4-dihydroquinazolin-2-yl)pyrrolidin-1-yl)pyrimidine-5-carbonitrile]	> 8.52	5.82
Cc1nc(N)nc(N2C[C@@H](O)C[C@H]2c2nc3cccc(-c4cncnc4)c3c(=O)n2-c2ccccc2)c1C#N [Example 26, 2-Amino-4-((2S,4S)-4-hydroxy-2-(4-oxo-3-phenyl-5-(pyrimidin-5-yl)-3,4-dihydroquinazolin-2-yl)pyrrolidin-1-yl)-6-methylpyrimidine-5-carbonitrile]	8.15	< 5.19
COc1ncc(-c2cccc3nc([C@@H]4CCCN4c4nc(N)nc(C)c4C#N)n(-c4ccccc4)c(=O)c23)cn1 [Example 4, (S)-2-Amino-4-(2-(5-(2-methoxypyrimidin-5-yl)-4-oxo-3-phenyl-3,4-dihydroquinazolin-2-yl)pyrrolidin-1-yl)-6-methylpyrimidine-5-carbonitrile]	> 8.52	5.55
Cc1nc(N)nc(N2C[C@@H](O)C[C@H]2c2nc3ccc(F)c(-c4cn(C)cn4)c3c(=O)n2-c2ccccc2)c1C#N [Example 31, 2-Amino-4-((2S,4S)-2-(6-fluoro-5-(1-methyl-1H-imidazol-4-yl)-4-oxo-3-phenyl-3,4-dihydroquinazolin-2-yl)-4-hydroxypyrrolidin-1-yl)-6-methylpyrimidine-5-carbonitrile]	6.92	< 5.00
Cc1nc(N)nc(N2C[C@@H](O)C[C@H]2c2nc3cccc(-c4cnn(C)c4)c3c(=O)n2-c2ccccc2)c1C#N [Example 16, 2-Amino-4-((2S,4S)-4-hydroxy-2-(5-(1-methyl-1H-pyrazol-4-yl)-4-oxo-3-phenyl-3,4-dihydroquinazolin-2-yl)pyrrolidin-1-yl)-6-methylpyrimidine-5-carbonitrile]	8.10	5.57
N#Cc1c(N)ncnc1N1CCC[C@H]1c1nc2cccc(C#CCO)c2c(=O)n1-c1ccccc1 [Example 33, (S)-4-Amino-6-(2-(5-(3-hydroxyprop-1-yn-1-yl)-4-oxo-3-phenyl-3,4-dihydroquinazolin-2-yl)pyrrolidin-1-yl)pyrimidine-5-carbonitrile]	7.85	5.19
Cn1cc(-c2c(F)ccc3nc([C@@H]4CCCN4c4ncnc(N)c4C#N)n(-c4ccccc4)c(=O)c23)cn1 [Example 5, (S)-4-Amino-6-(2-(6-fluoro-5-(1-methyl-1H-pyrazol-4-yl)-4-oxo-3-phenyl-3,4-dihydroquinazolin-2-yl)pyrrolidin-1-yl)pyrimidine-5-carbonitrile]	8.15	5.52
COc1ccc(-c2cccc3nc([C@@H]4CCCN4c4nc(N)nc(C)c4C#N)n(-c4ccccc4)c(=O)c23)cn1 [Example 21, (S)-2-Amino-4-(2-(5-(6-methoxypyridin-3-yl)-4-oxo-3-phenyl-3,4-dihydroquinazolin-2-yl)pyrrolidin-1-yl)-6-methylpyrimidine-5-carbonitrile]	7.89	5.60
Cc1ncc(-c2cccc3nc([C@@H]4CCCN4c4nc(N)nc(C)c4C#N)n(-c4ccccc4)c(=O)c23)cn1 [Example 19, (S)-2-Amino-4-methyl-6-(2-(5-(2-methylpyrimidin-5-yl)-4-oxo-3-phenyl-3,4-dihydroquinazolin-2-yl)pyrrolidin-1-yl)pyrimidine-5-carbonitrile]	> 8.52	5.27
Cn1cc(-c2cccc3nc([C@@H]4CCCN4c4ncnc(N)c4C#N)n(-c4ccccc4)c(=O)c23)cn1 [Example 2, (S)-4-Amino-6-(2-(5-(1-methyl-1H-pyrazol-4-yl)-4-oxo-3-phenyl-3,4-dihydroquinazolin-2-yl)pyrrolidin-1-yl)pyrimidine-5-carbonitrile]	8.52	5.89
Cc1nc(N)nc(N2C[C@@H](O)C[C@H]2c2nc3cccc(-c4cnn(CCO)c4)c3c(=O)n2-c2ccccc2)c1C#N [Example 28, 2-Amino-4-((2S,4S)-4-hydroxy-2-(5-(1-(2-hydroxyethyl)-1H-pyrazol-4-yl)-4-oxo-3-phenyl-3,4-dihydroquinazolin-2-yl)pyrrolidin-1-yl)-6-methylpyrimidine-5-carbonitrile]	7.05	< 5.00
